Data as given in US11510928B2, “Use of mirtazapine in the treatment of inflammatory disorders, autoimmune disease and PBC” (UTI Limited Partnership, priority 2017, dated 2022).

How the values were obtained:
Type in all cases: in vivo, mouse
hepatic immune cells = assay: Hepatic immune cell phenotyping by flow cytometry after mirtazapine treatment
Experimental: Male 8-10 week old C57BL/6 mice (Jackson Labs, Bar Harbor, Me.) were used. All procedures were approved by the University of Calgary Animal Care Committee (protocol numbers AC14-0129 and AC14-0128) and were performed in accordance with the guidelines of the Canadian Council on Animal Care. To delineate the impact of mirtazapine treatment upon liver immune cell numbers and phenotype, and upon cytokine/chemokine networks within the liver, mice were treated with mirtazapine 1-20 mg/kg intraperitoneally^13-15. Mirtazapine was suspended in 1% aqueous solution of Tween 80, whereas the control group received 1% aqueous solution of Tween 80. […] The detailed experimental protocols, lists of antibodies and reagents used, flow cytometry gating, and immune cell phenotyping strategies, are described herein. […] Isolated hepatic leukocytes were subjected to direct immunofluorescence analyses using multicolor flow cytometry staining as previously described. Samples were acquired either using a FACScan flow cytometer (Becton Dickinson, Mountain View, Calif.) or AttuneTM Acoustic Focusing flow cytometer (Applied Biosytems, […], Burlington, ON). Data were analyzed using FlowJo® software (Treestar, Ashland, Oreg.). Gating proceeded as follows: gating of live cells and exclusion of duplet cells followed by gating on forward scatter (FSC) and side scatter (SSC) areas to identify regions appropriate to define live leukocytes. Within the leukocyte gate, the following cell subsets were identified: Regulatory T cells (CD4^+CD25^+Foxp3^+), monocytes (CD11b^+Ly6C^+), dendritic cells (CD11b^+CD11c^+), B Cells (CD3^-IgM^+), B1a B cells (IgM^+CD5^+CD^11b^+), B1b B cells (IgM^+CD5^-CD11b^+), and B2 B cells as (IgM^+CD5^-CD11b^-). Fluorescence-minus-one (FMO) controls were used for the accurate designation of cells with fluorescence above background levels. Appropriate isotype controls were used to determine the specificity of all antibodies used. Cell numbers were calculated based on the percentage of cells found in the gate of interest, and total cell numbers isolated from each liver.

hepatic B cells = assay: Hepatic B cell characterization by flow cytometry, with liver/plasma cytokine and chemokine levels (Example 6)
Experimental: Male C57BL/6 mice (age 8-10 wks) were treated with mirt (20 mg/kg ip) or vehicle and livers removed 3-5 hrs later for B cell isolation and characterization by flow cytometry (FACS). Similarly peripheral blood and splenic B cells numbers were determined by FACS. Liver cytokine and chemokine levels were measured by Luminex®.

[1] = tested on: hepatic macrophages (Kupffer cells), monocytes and B cells; assay: Intravital microscopy (IVM) of liver after mirtazapine treatment
From the text: Rationale and Relevant Preliminary Data: The normal liver macrophage pool consists of a large self-renewing, non-migratory population of KCs that are important for maintaining tissue homeostasis^1-3. KCs are situated within the sinusoidal blood flow and are an essential component of hepatic innate immunity, playing key roles in inflammation and defense^2, 4. In addition, KCs fulfill homeostatic functions important for normal liver physiology5. KCs are capable of considerable phenotypic plasticity and are highly sensitive to changes within the hepatic environment, including cytokines^2, 4, 6, 7. In response to environmental cues, KCs are activated and can be polarized along a spectrum between M1-like (induced by IFNγ, TNFα, IL-1β, IL-12, TLR4 agonists) and M2-like (induced by IL-4, IL-13, IL-10) phenotypes^2, 4, 6, 7, and can dynamically shift between these phenotypic extremes in response to changes in their microenvironment^1, 2, 4, 8. This shift is critical for regulating inflammatory and repair processes in the liver^1, 8, 9.

[2] = 20 mg/kg ip, 3 hrs post-treatment

SMILES: CN1CCN2c3ncccc3Cc3ccccc3C2C1 (centres unmarked) [Mirtazapine]
- Cellular expression levels of FOXP3 in hepatic Tregs (MFI) (hepatic immune cells; [2]): enhanced cellular expression levels of FOXP3
- Hepatic CD11b+CD11c+ dendritic cells as % of total CD11b+ cells (hepatic immune cells; [2]): relatively enriched
- Numbers of Tregs (CD4+CD25+FOXP3+) within the liver (hepatic immune cells; [2]): significantly increased numbers of Tregs
- Hepatic numbers of CD73 expressing T cells (CD3+CD73+) (hepatic immune cells; 5 hr (FIG. 11)): increases hepatic numbers of CD73 expressing T cells
- CXCR3+CD73+ B1a cells in the liver (hepatic immune cells; 5 hrs post-treatment): significantly increased recruitment
- Expression intensity of FOXP3 per cell (MFI) (hepatic immune cells; 5 hrs post-treatment): significantly increased
- Hepatic B1a cells (hepatic immune cells; 5 hrs post-treatment): significant increase
- Hepatic B1b cells (hepatic immune cells; 5 hrs post-treatment): remained unchanged
- Hepatic B2 cells (hepatic immune cells; 5 hrs post-treatment): decrease
- Increase in hepatic numbers of CD4+CD25+FOXP3+ T cells (Tregs) (hepatic immune cells; 5 hrs post-treatment): ~2 fold
- Reduction of hepatic LY6Chi monocyte population (hepatic immune cells; 5 hrs post-treatment): ~2.5 fold
- Total hepatic leukocyte numbers (CD45+) (hepatic immune cells; 5 hrs post-treatment): did not alter total overall hepatic leukocyte numbers
- Total numbers of hepatic monocytes (CD11b+LY6C+) (hepatic immune cells; 5 hrs post-treatment): significant reduction
- Hepatic numbers of repair monocytes (CD11b+Ly6Clow) (hepatic immune cells; 5 hrs post-treatment (FIG. 4H)): significantly reduces
- CXCL10 expression in hepatic monocytes and dendritic cells (MFI) (hepatic immune cells; flow cytometry, vs vehicle): increased CXCL10 expression
- Hepatic CD11b+Ly6Chi (inflammatory) monocytes (hepatic immune cells; pilot study, 20 mg/kg, 4 hrs): rapid striking reduction
- Hepatic CD11b+Ly6Clo (anti-inflammatory/repair) monocyte numbers (hepatic immune cells; pilot study, 20 mg/kg, 4 hrs): no change
- B cell CXCR3 expression levels (MFI) (hepatic B cells; 20 mg/kg ip, 3-5 hrs): 12180±315.9
- Elevation of hepatic CXCL10 levels (Luminex) (hepatic B cells; 20 mg/kg ip, 3-5 hrs): ~120 fold
- Frequency of VLA-4+ hepatic B cells (hepatic B cells; 20 mg/kg ip, 3-5 hrs): 61.9+1.8%
- Hepatic CXCR3+ B cells (hepatic B cells; 20 mg/kg ip, 3-5 hrs): 47.5+1.4%
- Hepatic CXCR3hi B cells (hepatic B cells; 20 mg/kg ip, 3-5 hrs): 30.7±1.5%
- Hepatic CXCR3lo B cells (hepatic B cells; 20 mg/kg ip, 3-5 hrs): did not significantly alter
- Increase in hepatic IFNγ levels (Luminex) (hepatic B cells; 20 mg/kg ip, 3-5 hrs): ~8 fold
- VLA-4+CXCR3hi B cells (hepatic B cells; 20 mg/kg ip, 3-5 hrs): 16.1±1.7%
- Decrease in total hepatic B cell (IgM+) numbers (hepatic B cells; 20 mg/kg ip, within 3-5 hours): ~48%
- % B2 cells of IgM+ B cells in liver (hepatic B cells; 5 hr post-treatment): 29.6%+2.3%
- B1a B cells within the liver (hepatic B cells; 5 hrs post-treatment): 32.4%+1.5%
- Plasma levels of CXCL10 (ELISA) (hepatic B cells; 5 hrs post-treatment): 138.4 ± 24.4 pg/mL
- Hepatic B1b B cells (hepatic B cells; 5 hrs post-treatment, NS): 23.5%+1.4%
- CD11b+Ly6Chi monocytes producing CXCL10 (hepatic B cells; flow cytometry, 3 hrs post-treatment): 12.2%±3.8%
- Hepatic VCAM-1 expression (immunohistochemistry) (hepatic B cells; post-mirt): clear upregulation
- Interactions between hepatic B cells (CD19+) and hepatic macrophages (F4/80+) ([1]; 20 mg/kg, 3 hrs post-treatment, preliminary data): trend towards increased interactions
- Kupffer cell (F4/80+) activation: retraction of cellular processes, rounding of cell shape ([1]; 1 hr after treatment (FIG. 14)): activation of KCs
- Hepatic monocyte populations in CCR2RFP/+CX3CR1GFP/+ reporter mice ([1]; ~20 hrs post-treatment, pilot study): apparent increase in overall hepatic monocyte numbers coupled with the appearance of CCR2+CX3CR1+ double positive monocytes
